# According to ChEMBL document CHEMBL3994562 (Medchemcomm, 2016):
# pIC50: −log10 of the molar value.
# Columns and labels:
# [1] = system: HCT-116; assay: Antiproliferative activity in human HCT116 cells after 72 hrs by MTT assay; type: functional, cell-based; settings: HCT-116, 72 h
# [2] = system: MCF7; assay: Antiproliferative activity in human MCF7 cells after 72 hrs by MTT assay; type: functional, cell-based; settings: MCF7, 72 h
# [3] = system: HepG2; assay: Antiproliferative activity in human HepG2 cells after 72 hrs by MTT assay; type: functional, cell-based; settings: HepG2, 72 h
# [4] = system: A549; assay: Antiproliferative activity in human A549 cells after 72 hrs by MTT assay; type: functional, cell-based; settings: A549, 72 h
# [5] = Aqueous solubility of the compound in water after 48 hrs by UV spectrophotometer; type: physicochemical
# [6] = system: HCT-116; assay: Potency index, ratio of 5-FU IC50 to compound IC50 for human HCT116 cells; type: functional
# [7] = system: HepG2; assay: Potency index, ratio of 5-FU IC50 to compound IC50 for human HepG2 cells; type: functional
# [8] = system: Bel-7402; assay: Antiproliferative activity in human Bel7402 cells after 72 hrs by MTT assay; type: functional, cell-based; settings: Bel-7402, 72 h
# [9] = system: Bel-7402; assay: Antiproliferative activity in 5-FU resistant human Bel7402 cells after 72 hrs by MTT assay; type: functional, cell-based; settings: Bel-7402, 72 h
# [10] = system: HCT-116; assay: Induction of apoptosis in human HCT116 cells assessed as downregulation of cyclin B protein level after 24 hrs by Western blot method; type: functional, cell-based
# [11] = system: HCT-116; assay: Induction of apoptosis in human HCT116 cells at 4 uM after 48 hrs by annexin V-FITC/propidium iodide staining-based flow cytometric method; type: functional
# [12] = system: HCT-116; assay: Cell cycle arrest in human HCT116 cells assessed as accumulation at G2/M phase after 24 hrs by propidium iodide staining-based flow cytometric analysis; type: functional
# [13] = system: HCT-116; assay: Induction of apoptosis in human HCT116 cells after 48 hrs by annexin V-FITC/propidium iodide staining-based flow cytometric method; type: functional, cell-based
# [14] = system: HCT-116; assay: Induction of apoptosis in human HCT116 cells assessed as downregulation of CDK1 protein level after 24 hrs by Western blot method; type: functional, cell-based
# [15] = system: HCT-116; assay: Cell cycle arrest in human HCT116 cells assessed as decrease in cell population at G0/G1 phase after 24 hrs by propidium iodide staining-based flow cytometric analysis; type: functional
# [16] = system: SCC-4; assay: Antiproliferative activity against human SCC4 cells; type: functional, cell-based
# [17] = system: SGC-7901; assay: Antiproliferative activity against human SGC7901 cells after 24 to 72 hrs by MTT assay; type: functional, cell-based
# [18] = system: HL-60; assay: Antiproliferative activity against human HL60 cells; type: functional, cell-based
# [19] = system: HepG2; assay: Antiproliferative activity against human HepG2 cells
# [20] = Antiproliferative activity against human nasopharyngeal carcinoma cells; type: functional, cell-based; settings: Nasopharyngeal carcinoma cell
# [21] = system: A549; assay: Antiproliferative activity against human A549 cells
# [22] = system: Bel-7402; assay: Antiproliferative activity against human Bel7402 cells after 24 to 72 hrs by MTT assay; type: functional, cell-based
# [23] = system: MCF7; assay: Antiproliferative activity against human MCF7 cells; type: functional, cell-based
SMILES,pIC50 [1],pIC50 [2],pIC50 [3],pIC50 [4],solubility at 48 h [5] [mg/mL],further results
CCN1CCN(CCCCCCOC(=O)c2cc(O)c3c(c2)C(=O)c2cccc(O)c2C3=O)CC1.Cl.Cl,5.71,5.49,5.83,5.19,10.2,–
Cl.O=C(OCCCN1CCCCC1)c1cc(O)c2c(c1)C(=O)c1cccc(O)c1C2=O,6.11,5.11,5.46,5.27,11.3,–
Cl.O=C(OCCCCCCN1CCCCC1)c1cc(O)c2c(c1)C(=O)c1cccc(O)c1C2=O,6.32,5.23,6.28,5.52,11,Ratio IC50 [6]: 5 - 18; Ratio IC50 [7]: 5 - 18; pIC50 [8]: 5.40; pIC50 [9]: 5.23
CN1CCN(CCCCCOC(=O)c2cc(O)c3c(c2)C(=O)c2cccc(O)c2C3=O)CC1.Cl.Cl,5.82,5.95,5.53,5.20,13.7,–
CCN(CC)CCCCCOC(=O)c1cc(O)c2c(c1)C(=O)c1cccc(O)c1C2=O.Cl,5.04,4.82,4.91,4.56,12.4,–
Cl.O=C(OCCCCN1CCCCC1)c1cc(O)c2c(c1)C(=O)c1cccc(O)c1C2=O,5.69,4.54,6.05,4.58,10.7,–
Cl.Cl.O=C(OCCCCN1CCN(CCO)CC1)c1cc(O)c2c(c1)C(=O)c1cccc(O)c1C2=O,6.07,5.40,5.44,5.60,12,–
CN1CCN(CCCCCCOC(=O)c2cc(O)c3c(c2)C(=O)c2cccc(O)c2C3=O)CC1.Cl.Cl,6.12,5.30,6.38,5.47,12.9,–
Cl.O=C(OCCCCCN1CCCCC1)c1cc(O)c2c(c1)C(=O)c1cccc(O)c1C2=O,5.28,5.71,5.21,5.06,10.3,–
CCN1CCN(CCCCCOC(=O)c2cc(O)c3c(c2)C(=O)c2cccc(O)c2C3=O)CC1.Cl.Cl,5.62,6.38,5.54,5.17,10,–
Cl.O=C(OCCCCN1CCOCC1)c1cc(O)c2c(c1)C(=O)c1cccc(O)c1C2=O,5.48,4.61,5.21,4.67,11.7,–
CCN1CCN(CCCCOC(=O)c2cc(O)c3c(c2)C(=O)c2cccc(O)c2C3=O)CC1.Cl.Cl,5.73,5.28,5.60,5.07,10.5,–
CCN(CC)CCCCCCOC(=O)c1cc(O)c2c(c1)C(=O)c1cccc(O)c1C2=O.Cl,6.08,5.12,6.48,5.36,13.8,Ratio IC50 [6]: 5 - 18; Ratio IC50 [7]: 5 - 18; pIC50 [8]: 5.19; pIC50 [9]: 5.14
Cl.Cl.O=C(OCCCN1CCN(CCO)CC1)c1cc(O)c2c(c1)C(=O)c1cccc(O)c1C2=O,6.15,5.05,5.40,5.15,12.2,–
Cl.O=C(OCCCCCN1CCOCC1)c1cc(O)c2c(c1)C(=O)c1cccc(O)c1C2=O,5.06,5.01,5.22,4.97,12.3,–
Cl.Cl.O=C(OCCCCCCN1CCN(CCO)CC1)c1cc(O)c2c(c1)C(=O)c1cccc(O)c1C2=O,6.51,5.12,6.07,5.28,15.1,Activity [10]: Dose-dependent effect; Ratio IC50 [6]: 5 - 18; Activity [11]: 56.08%; Ratio IC50 [7]: 5 - 18; Activity [12]: Dose-dependent effect; Activity [13]: Dose-dependent effect; pIC50 [8]: 5.63; pIC50 [9]: 5.35; Activity [14]: Dose-dependent effect; Activity [15]: Dose-dependent effect
CCN(CC)CCCCOC(=O)c1cc(O)c2c(c1)C(=O)c1cccc(O)c1C2=O.Cl,5.74,5.27,5.87,5.41,13,–
Cl.Cl.O=C(OCCCCCN1CCN(CCO)CC1)c1cc(O)c2c(c1)C(=O)c1cccc(O)c1C2=O,6.26,6.02,5.60,5.28,12.2,–
CCN(CC)CCCOC(=O)c1cc(O)c2c(c1)C(=O)c1cccc(O)c1C2=O.Cl,6.19,5.08,5.53,5.21,13.6,–
O=c1[nH]cc(F)c(=O)[nH]1 [FLUOROURACIL],5.37,5.36,5.24,4.99,–,pIC50 [8]: 5.12; pIC50 [9]: 3.67
O=C(O)c1cc(O)c2c(c1)C(=O)c1cccc(O)c1C2=O [RHEIN],3.94,3.98,4.00,3.92,0.0456,pIC50 [16]: 4.24; pIC50 [17]: 3.82; pIC50 [18]: 4.00; pIC50 [8]: 3.92; pIC50 [19]: 3.15; pIC50 [9]: 3.87; pIC50 [20]: 3.85; pIC50 [21]: 4.10; pIC50 [22]: 3.96; pIC50 [23]: 3.89
CCN1CCN(CCCOC(=O)c2cc(O)c3c(c2)C(=O)c2cccc(O)c2C3=O)CC1.Cl.Cl,5.40,5.44,5.87,5.12,10.1,–
CN1CCN(CCCOC(=O)c2cc(O)c3c(c2)C(=O)c2cccc(O)c2C3=O)CC1.Cl.Cl,5.43,4.94,5.31,5.08,13.3,–
Cl.O=C(OCCCCCCN1CCOCC1)c1cc(O)c2c(c1)C(=O)c1cccc(O)c1C2=O,5.49,4.56,6.10,4.59,12.8,–
Cl.O=C(OCCCN1CCOCC1)c1cc(O)c2c(c1)C(=O)c1cccc(O)c1C2=O,5.31,4.56,5.74,4.60,12.1,–
CN1CCN(CCCCOC(=O)c2cc(O)c3c(c2)C(=O)c2cccc(O)c2C3=O)CC1.Cl.Cl,5.53,5.18,5.48,5.54,14.8,–
